According to patent US20060111409A1, “Medicament for treatment of diabetes” (priority 2002, published 2006):

- melting point: 218 to 219 °C
SMILES: CC(=O)Oc1ccccc1C(=O)Nc1cc(Cl)cc(Cl)c1
